Earlier results in patent US12569481B2, “Methods of treatment for gastrointestinal motility disorders” (Vanderbilt University, priority 2020, dated 2026).

Columns and labels:
[1] = molecular target: cardiac late sodium current (late INa) (Homo sapiens, UniProt Q14524)
[2] = molecular target: KCNH2-encoded hERG K+ channels (Homo sapiens, UniProt Q12809); conditions: channels found in cardiac muscle and intestinal smooth muscle
[3] = molecular target: T1, sodium current in human colon SMCs (Homo sapiens, UniProt Q14524)
T1 construct: sodium current in human colon SMCs; endogenous in cells; host or cells: human colon smooth muscle cells (SMCs)

[4] = test system: human colon muscle strips
[5] = not given; remark: listed apart in the source
[6] = room temperature; over-encapsulated 500 mg extended release tablets

cardiac late sodium current (late INa), sequence (Q14524 whole entry): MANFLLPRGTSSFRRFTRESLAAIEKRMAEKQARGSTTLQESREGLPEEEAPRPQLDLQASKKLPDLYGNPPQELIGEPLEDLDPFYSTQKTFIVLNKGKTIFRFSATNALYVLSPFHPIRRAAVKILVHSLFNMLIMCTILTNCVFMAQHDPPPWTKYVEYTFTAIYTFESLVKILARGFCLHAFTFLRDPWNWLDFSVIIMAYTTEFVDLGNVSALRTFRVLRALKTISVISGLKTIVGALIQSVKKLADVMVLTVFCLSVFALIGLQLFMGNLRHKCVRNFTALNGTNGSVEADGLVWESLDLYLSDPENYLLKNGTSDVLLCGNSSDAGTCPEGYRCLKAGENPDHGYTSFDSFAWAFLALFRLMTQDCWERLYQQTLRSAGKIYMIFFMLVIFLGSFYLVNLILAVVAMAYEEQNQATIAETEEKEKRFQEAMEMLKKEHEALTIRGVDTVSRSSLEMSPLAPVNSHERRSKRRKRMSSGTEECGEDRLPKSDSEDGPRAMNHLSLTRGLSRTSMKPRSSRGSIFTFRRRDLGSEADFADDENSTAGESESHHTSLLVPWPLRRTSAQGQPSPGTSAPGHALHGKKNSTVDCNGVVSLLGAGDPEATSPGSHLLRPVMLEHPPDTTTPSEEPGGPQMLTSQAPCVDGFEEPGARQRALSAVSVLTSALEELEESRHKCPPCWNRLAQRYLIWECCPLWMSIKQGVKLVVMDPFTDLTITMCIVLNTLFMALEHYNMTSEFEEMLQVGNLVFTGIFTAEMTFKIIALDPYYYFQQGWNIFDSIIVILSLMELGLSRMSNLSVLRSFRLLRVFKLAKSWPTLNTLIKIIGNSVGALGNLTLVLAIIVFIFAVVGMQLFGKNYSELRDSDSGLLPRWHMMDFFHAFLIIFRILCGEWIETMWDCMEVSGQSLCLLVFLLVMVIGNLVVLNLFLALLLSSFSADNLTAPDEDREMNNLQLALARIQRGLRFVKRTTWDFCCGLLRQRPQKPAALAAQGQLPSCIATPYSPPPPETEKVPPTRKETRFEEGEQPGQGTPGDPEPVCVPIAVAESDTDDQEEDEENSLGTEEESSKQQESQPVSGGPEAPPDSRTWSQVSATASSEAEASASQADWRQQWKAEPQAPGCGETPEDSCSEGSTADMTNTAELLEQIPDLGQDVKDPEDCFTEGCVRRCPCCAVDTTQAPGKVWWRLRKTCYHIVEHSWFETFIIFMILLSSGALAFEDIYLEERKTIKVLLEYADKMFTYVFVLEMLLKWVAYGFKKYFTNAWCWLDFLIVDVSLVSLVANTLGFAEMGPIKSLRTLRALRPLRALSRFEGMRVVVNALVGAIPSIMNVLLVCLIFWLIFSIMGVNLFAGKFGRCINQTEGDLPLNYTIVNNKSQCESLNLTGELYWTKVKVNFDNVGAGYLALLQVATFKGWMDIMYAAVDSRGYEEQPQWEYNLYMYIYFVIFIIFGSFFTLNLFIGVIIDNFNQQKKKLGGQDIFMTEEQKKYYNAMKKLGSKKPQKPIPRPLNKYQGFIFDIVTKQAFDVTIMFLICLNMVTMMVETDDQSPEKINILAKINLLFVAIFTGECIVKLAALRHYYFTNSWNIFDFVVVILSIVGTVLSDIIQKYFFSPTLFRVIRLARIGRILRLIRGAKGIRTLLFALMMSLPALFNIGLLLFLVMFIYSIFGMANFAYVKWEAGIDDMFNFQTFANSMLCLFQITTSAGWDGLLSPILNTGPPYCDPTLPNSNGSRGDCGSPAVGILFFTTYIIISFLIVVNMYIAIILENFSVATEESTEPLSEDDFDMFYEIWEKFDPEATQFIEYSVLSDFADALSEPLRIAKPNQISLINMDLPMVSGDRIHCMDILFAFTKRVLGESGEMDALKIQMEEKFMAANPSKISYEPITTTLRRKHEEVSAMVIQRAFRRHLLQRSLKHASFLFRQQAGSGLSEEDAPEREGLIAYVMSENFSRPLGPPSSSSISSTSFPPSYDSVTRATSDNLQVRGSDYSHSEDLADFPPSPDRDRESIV
T1 sequence (Q14524 whole entry): as above

selectivity for late INa vs peak INa ([1]; late INa vs peak INa): nine
inhibition of cardiac late sodium current (late INa) ([1]; residual Na+ flowing after peak INa during an action potential): inhibitor
metabolism (cytochrome P-450 3A enzyme (CYP3A) pathway in the liver): rapidly metabolized
half-life (in vivo): seven
ingested ranolazine excreted in the urine (ingested, urine): At least 70%
storage time [6]: up to 12 months
Structure (SMILES): COc1ccccc1OCC(O)CN1CCN(CC(=O)Nc2c(C)cccc2C)CC1 (centres unmarked) [Ranolazine]
block of KCNH2-encoded hERG K+ channels [2]: block
effect on peak amplitude and mechanosensitivity of sodium current [3]: blocks both peak amplitude and mechanosensitivity
effect on contractility [4]: decreases contractility
patients experiencing the most common side effects ([5]; dizziness, nausea, constipation, and headache): less than 2%
safety and tolerability ([5]; used properly and not concurrently with contraindicated drugs): safe and well-tolerated
